# Test results taken from PubChem BioAssay AID1963840 (Molecular Pharmacology Branch, DTP, NCI, 2024).
# System: 695427-040-R-J1-PDC complex spheroid viability
# Assay: Anticancer human tumor 695427-040-R-J1-PDC patient-derived colon adenocarcinoma cell line growth inhibition [POLQ]
# Settings: for IC50: curve of first compound; for viability, T/C: stronger effect = lower value
# How it was run: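 PDC + HUVEC + MSC complex spheroids; POLQ inhibitors ± partner drugs; top conc. at/near clinical Cmax, else 10 microM (SN-38 1 microM), half-log dilutions; 37 degrees C, 5% CO2.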
# 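Also: spheroids exposed to compounds for seven days.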
# 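For viability, T/C in this document: 100% = DMSO vehicle control viability.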
smiles,measurement,setting,value
CCc1cc2c(N3CCc4c(cc(Cn5ccnc5)cc4-c4cn(C)nc4C(F)(F)F)C3=O)ccnc2c(OC)n1 + Nc1ccc(C#CCN(C(=O)Cc2ncc(C(F)(F)F)cc2C(F)(F)F)c2ccc(F)cc2)nn1,IC50,second compound 0.0316 µM,> 10 µM
same,IC50,second compound 0.1 µM,> 10 µM
same,IC50,second compound 0.316 µM,> 10 µM
same,IC50,second compound 1 µM,> 10 µM
same,IC50,second compound 3.16 µM,> 10 µM
same,IC50,second compound 10 µM,> 10 µM
same,"viability, T/C","second compound 0.0316 µM, first compound 0.0316 µM",102%
same,"viability, T/C","second compound 0.0316 µM, first compound 0.1 µM",106%
same,"viability, T/C","second compound 0.0316 µM, first compound 0.316 µM",94.6%
same,"viability, T/C","second compound 0.0316 µM, first compound 1 µM",95.8%
same,"viability, T/C","second compound 0.0316 µM, first compound 3.16 µM",105%
same,"viability, T/C","second compound 0.0316 µM, first compound 10 µM",96%
same,"viability, T/C","second compound 0.1 µM, first compound 0.0316 µM",115%
same,"viability, T/C","second compound 0.1 µM, first compound 0.1 µM",112%
same,"viability, T/C","second compound 0.1 µM, first compound 0.316 µM",101%
same,"viability, T/C","second compound 0.1 µM, first compound 1 µM",100%
same,"viability, T/C","second compound 0.1 µM, first compound 3.16 µM",105%
same,"viability, T/C","second compound 0.1 µM, first compound 10 µM",102%
same,"viability, T/C","second compound 0.316 µM, first compound 0.0316 µM",118%
same,"viability, T/C","second compound 0.316 µM, first compound 0.1 µM",115%
same,"viability, T/C","second compound 0.316 µM, first compound 0.316 µM",93%
same,"viability, T/C","second compound 0.316 µM, first compound 1 µM",104%
same,"viability, T/C","second compound 0.316 µM, first compound 3.16 µM",103%
same,"viability, T/C","second compound 0.316 µM, first compound 10 µM",87.6%
same,"viability, T/C","second compound 1 µM, first compound 0.0316 µM",116%
same,"viability, T/C","second compound 1 µM, first compound 0.1 µM",95.1%
same,"viability, T/C","second compound 1 µM, first compound 0.316 µM",102%
same,"viability, T/C","second compound 1 µM, first compound 1 µM",104%
same,"viability, T/C","second compound 1 µM, first compound 3.16 µM",114%
same,"viability, T/C","second compound 1 µM, first compound 10 µM",84.5%
same,"viability, T/C","second compound 3.16 µM, first compound 0.0316 µM",116%
same,"viability, T/C","second compound 3.16 µM, first compound 0.1 µM",104%
same,"viability, T/C","second compound 3.16 µM, first compound 0.316 µM",93.6%
same,"viability, T/C","second compound 3.16 µM, first compound 1 µM",104%
same,"viability, T/C","second compound 3.16 µM, first compound 3.16 µM",103%
same,"viability, T/C","second compound 3.16 µM, first compound 10 µM",90%
same,"viability, T/C","second compound 10 µM, first compound 0.0316 µM",101%
same,"viability, T/C","second compound 10 µM, first compound 0.1 µM",93.2%
same,"viability, T/C","second compound 10 µM, first compound 0.316 µM",101%
same,"viability, T/C","second compound 10 µM, first compound 1 µM",110%
same,"viability, T/C","second compound 10 µM, first compound 3.16 µM",97.7%
same,"viability, T/C","second compound 10 µM, first compound 10 µM",96.7%
